Here are results for 9 compounds from patent publication US7595320B2, “Hydrazinocarbonyl-thieno[2,3-C]pyrazoles, process for preparing them, compositions containing them and use thereof” (Aventis Pharma S.A., priority 2005, dated 2009).

Holding throughout (type): biochemical
One assay deals with T1, CDK2/cycline E (Homo sapiens, UniProt P24941).
T1 construct: made in house; host or cells: Sf21 insect cells (baculovirus coinfection)
Kind of assay: CDK2/cyclineE Flashplate test in 96-well format. The note with it: CDK2/cycline E complex, 1 μM ATP. The method, then: Two recombinant baculoviruses bearing the human sequences coding, respectively, for CDK2 and cyclineE (the latter bearing a C-terminal hexahistidine tag) are used to coinfect Sf21 insect cells. Two to three days after the start of coinfection, the cells are harvested by centrifugation and then stored at −40° C. until the time of use.
A format in streptavidin-coated 96-well plates is used to test the activity of the compounds on the kinase activity of CDK2/cycline E.
To perform this test, the biotinylated peptide substrate, a fragment of the protein pRb (biotinyl-[…]-OH), is dissolved at a concentration of 1 mM in kinase buffer (HEPES/NaOH 50 mM, NaCl 1 mM, MgCl2 5 mM, pH 7.5) in order to constitute a stock solution stored at −20° C. in the form of 110 μL aliquots. On the day of the experiment, an aliquot of this solution is thawed and diluted in kinase buffer containing 1 mM of dithiothreitol, added to the buffer extemporaneously, in order to obtain a concentration of 14.3 μM. 70 μL of this solution are added to each well of the Flashplate in order to obtain a final substrate concentration of 10 μM during the enzymatic reaction performed in a final volume of the reaction medium of 100 μL (cf. below).
Intermediate dilutions of inhibitors (products of the invention) at various concentrations are prepared in DMSO from stock solutions at 10 mM in separate tubes. Dilutions at 1000 μM, 333.3 μM, 111.1 μM, 37.03 μM, 12.35 μM, 4.11 μM and 1.37 μM are thus prepared. One μL of each of these solutions (or 1 μL of DMSO for the controls) is transferred into the wells of the test plate.
19 μl of a solution of a mixture of adenosine triphosphate (ATP) and of ATPγ^33P in kinase buffer at a total concentration of 5.26 μM of ATP and 52.6 μCi/ml of ^33P are then added to each well. The enzymatic reaction is initiated by adding 10 μL per well of a 200 nM solution of CDK2/cycline E in kinase buffer containing 1 mM of dithiothreitol (or 10 μL of kinase buffer containing 1 mM of dithiothreitol for the reaction blanks).
After addition of each of the reagents, the final volume of each well is 100 μL, the final concentration of substrate is 10 μM, the final inhibitor concentrations are 10 μM, 3.33 μM, 1.11 μM, 0.37 μM, 0.123 μM, 0.041 μM and 0.014 μM (according to the concentration of the intermediate dilution), the final ATP concentration is 1 μM, the final amount of ^33P is 1 μCi/well, and the final concentration of CDK2/cycline E complex is 20 nM.
After addition of all of the reagents, the test plate is incubated at 30° C. with orbital shaking at 650 rpm.
When the incubation is complete, the plate is washed three times with 300 μL per well of PBS (phosphate-buffered saline, pH=7.4, without calcium or magnesium, reference 10010-015, Gibco BRL). The incorporation of ^33P to the peptide is quantified by scintillation counting with a Packard Topcount.NXT machine.

Another assay deals with T2, Aurora1 (Homo sapiens, UniProt Q96GD4).
T2 construct: His tag (N); made in house
T2 sequence (Q96GD4 whole entry, species assumed): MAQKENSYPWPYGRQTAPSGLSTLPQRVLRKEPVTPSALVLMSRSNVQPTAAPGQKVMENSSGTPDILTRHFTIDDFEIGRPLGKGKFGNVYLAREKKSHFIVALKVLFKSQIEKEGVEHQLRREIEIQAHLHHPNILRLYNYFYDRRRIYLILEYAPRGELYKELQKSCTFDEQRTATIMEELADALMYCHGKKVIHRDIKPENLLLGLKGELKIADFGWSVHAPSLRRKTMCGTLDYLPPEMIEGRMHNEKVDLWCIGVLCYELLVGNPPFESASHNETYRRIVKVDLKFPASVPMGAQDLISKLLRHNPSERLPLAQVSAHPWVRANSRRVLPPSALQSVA
T2 sequence (Q9NQS7 835-903 partner limits assumed, species assumed): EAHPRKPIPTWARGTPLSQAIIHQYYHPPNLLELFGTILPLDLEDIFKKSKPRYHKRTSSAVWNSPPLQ
The assay can be described thus: Aurora1 enzymatic test, NuMA phosphorylation with [33P]ATP, Flashplate. The following applies: Aurora-B/INCENP-C3 recombinant complex, 1 μM ATP. On the procedure:
(§1) The inhibitory effect of compounds with respect to the kinases Aurora1 and Aurora2 is determined by means of an enzymatic test using radioactivity detection.
(§2) The kinase activity of Aurora1 and Aurora2 is evaluated via the phosphorylation of the substrate Numa-histidine in the presence of radiolabelled ATP ([^33P]ATP) using 96-well Flashplate plates in which the nickel chelate is bound to the surface of the microplate. The amount of ^33P phosphate incorporated into the NuMA substrate is proportional to the activity of the enzyme Aurora1 or Aurora2.
Aurora1: Aurora-B/INCENP-C3 recombinant complex, purified to about 50%, the N-terminal end of Aurora-B of which has been labeled with histidine.
(§3) NuMA (nuclear protein that combines with the mitotic apparatus): 424-amino acid fragment, expressed in E. coli, the N-terminal end of which has been labeled with histidine, and used as substrate for the two Aurora enzymes.
(§4) The microplates used are 96-well Flash-Plate plates, nickel chelate (Perkin-Elmer, model SMP107).
(§5) The products to be evaluated are incubated in a reaction volume of 100 μL per well, in the presence of 10 nM of Aurora1 or Aurora2, 500 nM of NuMA substrate in a buffer composed of 50 mM Tris/HCl (pH 7.5), 50 mM NaCl, 5 mM MgCl2 (Aurora-B) or 10 mM MgCl2 (Aurora-A) and 1 mM DTT, at 37° C.
(§6) 80 μL of enzyme/substrate incubation buffer are distributed in each well, followed by 10 μL of product to be evaluated, at variable concentrations. The reaction is initiated by adding 1 μM final of ATP containing 0.2 μCi of [^33P]ATP (10 μL). After incubating for 30 minutes, the reaction is quenched by simple removal of the reaction buffer and each well is washed twice with 300 μl of Tris/HCl buffer. The radioactivity is then measured in each well using a Packard, Top-Count model scintillation machine.
(§7) The control enzymatic activity of Aurora is expressed by the number of counts per minute obtained over 30 minutes after subtracting the background noise (reaction mixture containing no enzyme). The evaluation of the various test products is expressed as a percentage of inhibition of the Aurora activity relative to the control.

A further assay deals with T3, Aurora2 (Homo sapiens, UniProt O14965).
T3 construct: Aurora2: whole recombinant protein comprising an N-terminal histidine tail; His tag (N); made in house; host or cells: E. coli
T3 sequence (O14965 1-403): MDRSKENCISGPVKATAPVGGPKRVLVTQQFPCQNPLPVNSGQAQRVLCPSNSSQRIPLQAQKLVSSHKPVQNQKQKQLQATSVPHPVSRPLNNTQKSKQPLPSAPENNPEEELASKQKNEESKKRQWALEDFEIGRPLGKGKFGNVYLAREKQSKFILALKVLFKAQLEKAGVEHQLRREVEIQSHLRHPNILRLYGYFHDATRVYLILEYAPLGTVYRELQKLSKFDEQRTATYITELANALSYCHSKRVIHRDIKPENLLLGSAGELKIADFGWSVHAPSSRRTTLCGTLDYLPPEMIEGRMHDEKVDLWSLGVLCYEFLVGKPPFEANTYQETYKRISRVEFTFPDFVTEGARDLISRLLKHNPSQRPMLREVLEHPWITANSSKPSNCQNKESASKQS
The assay can be described thus: Aurora2 enzymatic test, NuMA phosphorylation with [33P]ATP, Flashplate. The note with it: whole recombinant protein, 1 μM ATP. On the procedure:
as §1, §2
Aurora2: whole recombinant protein comprising an N-terminal histidine tail, was expressed in E. coli and purified to more than 82%.
as §3, §4, §5, §6, §7

The next assay has as its target T4, Tie2 (Homo sapiens, UniProt Q02763).
T4 construct: amino acids of the intracellular domain 776-1124; made in house; host or cells: baculovirus expression (pFastBacGT vector)
The assay can be described thus: Tie2 kinase test, phosphorylation of PLC with GST-Tie2. The following applies: GST-Tie2 intracellular domain 776-1124. On the procedure:
The coding sequence of human Tie2 corresponding to the amino acids of the intracellular domain 776-1124 was generated by PCR using the cDNA isolated from a human placenta as a model. This sequence was introduced into a pFastBacGT baculovirus expression vector in the form of a GST fusion protein.
The inhibitory effect of the molecules is determined in a test of phosphorylation of PLC with Tie2 in the presence of GST-Tie2 purified to about 80% homogeneity. The substrate is composed of the SH2-SH3 fragments of PLC expressed in the form of a GST fusion protein.
The kinase activity of Tie2 is measured in a MOPS 20 mM pH 7.2 buffer, containing 10 mM MgCl2, 10 mM MnCl2, 1 mM DTT, 10 mM of glycerophosphate. In a 96-well FlashPlate plate maintained on ice, a reaction mixture is deposited, composed of 70 μL of kinase buffer containing 100 ng of enzyme GST-Tie2 per well. Next, 10 μL of the test molecule diluted in DMSO to a maximum concentration of 10% are added. For a given concentration, each measurement is performed four times. The reaction is initiated by adding 20 μL of solution containing 2 μg of GST-PLC, 2 μm of cold ATP and 1 μCi of ^33P[ATP]. After incubation for one hour at 37° C., the reaction is stopped by adding 1 volume (100 μl) of 200 mM EDTA. After removal of the incubation buffer, the wells are washed three times with 300 μL of PBS. The radioactivity is measured on a MicroBeta1450 Wallac.
The inhibition of the Tie2 activity is calculated and expressed as a percentage of inhibition relative to the control activity determined in the absence of compound.

Counter-ions that a name gives are not always drawn.

T4 sequence (Q02763 776-1124): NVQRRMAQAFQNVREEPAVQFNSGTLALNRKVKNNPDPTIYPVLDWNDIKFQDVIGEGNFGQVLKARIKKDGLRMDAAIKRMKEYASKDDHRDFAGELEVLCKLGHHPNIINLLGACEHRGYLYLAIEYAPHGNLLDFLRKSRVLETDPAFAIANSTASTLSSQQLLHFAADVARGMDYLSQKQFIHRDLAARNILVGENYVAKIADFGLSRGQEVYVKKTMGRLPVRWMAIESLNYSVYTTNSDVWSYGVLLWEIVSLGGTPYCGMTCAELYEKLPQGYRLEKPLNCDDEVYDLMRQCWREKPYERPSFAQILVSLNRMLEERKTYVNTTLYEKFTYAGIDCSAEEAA

On to `CCN(CC)CCNCc1ccc(C(=O)Nc2n[nH]c3sc(C(=O)NN(C)c4ccc(Cl)cc4)cc23)cc1` [Example 23b, N-{5-[N′-(4-chlorophenyl)-N′-methylhydrazinocarbonyl]-1H-thieno[2,3-c]pyrazol-3-yl}-4-[(2-diethylaminoethylamino)methyl]benzamide], for which the IC50 (usually the concentration at which inhibition is half-maximal) is 0.138 µM against CDK2/cycline E, 0.259 µM at Aurora1, 0.101 µM on Aurora2 and 0.543 µM against Tie2.

`CN(C)CCN(C)Cc1ccc(C(=O)Nc2n[nH]c3sc(C(=O)NN(C)c4ccc(Cl)cc4)cc23)cc1` [Example 20b, N-{5-[N′-(4-chlorophenyl)-N′-methylhydrazinocarbonyl]-1H-thieno[2,3-c]pyrazol-3-yl}-4-{[(2-dimethylaminoethyl)methylamino]methyl}benzamide]: the IC50 at CDK2/cycline E came to 0.109 µM; on Aurora1 it was 0.155 µM; on Aurora2, 0.075 µM; against Tie2, 0.369 µM.

Consider `COc1ccc(C(=O)Nc2n[nH]c3sc(C(=O)NNC4CCCCC4)cc23)cc1` [Example 3, N-[5-(N′-cyclohexylhydrazinocarbonyl)-1H-thieno-[2,3-c]pyrazol-3-yl]-4-methoxybenzamide], for which the IC50 at CDK2/cycline E stood at 0.471 µM; at Aurora1, 0.031 µM; on Aurora2, 0.045 µM; at Tie2, 0.192 µM.

Turning to `COc1ccc(C(=O)Nc2n[nH]c3sc(C(=O)NNc4ccccc4C)cc23)cc1` [Example 7, 4-methoxy-N-[5-(N′-o-tolylhydrazinocarbonyl)-1H-thieno[2,3-c]pyrazol-3-yl]benzamide], the IC50 amounted to 0.428 µM against CDK2/cycline E, 0.016 µM at Aurora1, 0.017 µM on Aurora2 and 0.186 µM against Tie2.

`CN(NC(=O)c1cc2c(NC(=O)c3ccc(CN4CCNCC4)cc3)n[nH]c2s1)c1ccc(Cl)cc1` [Example 13b, N-{5-[N′-(4-chlorophenyl)-N′-methylhydrazinocarbonyl]-1H-thieno[2,3-c]pyrazol-3-yl}-4-piperazin-1-ylmethylbenzamide]: the IC50 against CDK2/cycline E stood at 0.049 µM; at Aurora1, 0.182 µM; on Aurora2, 0.085 µM; at Tie2, 0.324 µM.

For the compound `CC1CN(Cc2ccc(C(=O)Nc3n[nH]c4sc(C(=O)NN(C)c5ccccc5)cc34)cc2)CC(C)N1` (stereo not drawn) [Example 11a, 4-(3,5-dimethylpiperazin-1-ylmethyl)-N-[5-(N′-methyl-N′-phenylhydrazinocarbonyl)-1H-thieno[2,3-c]pyrazol-3-yl]benzamide], the IC50 came to 0.156 µM against CDK2/cycline E, 0.178 µM at Aurora1, 0.031 µM on Aurora2 and 0.52 µM against Tie2.

As for `CCN(CC)Cc1ccc(C(=O)Nc2n[nH]c3sc(C(=O)NN(C)c4ccccc4)cc23)cc1` [Example 15a, 4-diethylaminomethyl-N-[5-(N′-methyl-N′-phenylhydrazinocarbonyl)-1H-thieno[2,3-c]pyrazol-3-yl]benzamide trifluoroacetate], the IC50 against CDK2/cycline E was 0.21 µM; at Aurora1, 0.114 µM; at Aurora2, 0.012 µM; at Tie2, 0.623 µM.

With `CN1CCCN(c2ccc(C(=O)Nc3n[nH]c4sc(C(=O)NN(C)c5ccccc5)cc34)cn2)CC1` [Example 44, 6-(4-methyl[1,4]diazepan-1-yl)-N-[5-(N′-methyl-N′-phenylhydrazinocarbonyl)-1H-thieno[2,3-c]pyrazol-3-yl]nicotinamide], the IC50 against CDK2/cycline E is 0.201 µM; at Aurora1 it was 0.021 µM; at Aurora2, 0.006 µM; on Tie2, 0.107 µM.

As for `CN1CCN(c2ccc(C(=O)Nc3n[nH]c4sc(C(=O)NN5CCCCC5)cc34)cc2)CC1` [Example 31, N-(piperidin-1-yl)-3-[4-(4-methylpiperazin-1-yl)benzoylamino]-1H-thieno[2,3-c]pyrazole-5-carboxamide], the IC50 against CDK2/cycline E worked out at 0.275 µM; on Aurora1, 0.096 µM; on Aurora2 it was 0.026 µM; at Tie2, 3.06 µM.
